Patent US11312727B1, “Macrocyclic flu endonuclease inhibitors” (Janssen BioPharma, Inc., priority 2018, dated 2022)

What was measured:
[1] = test system: Influenza strain A549 A/WSN/33 (H1N1); test: microbe, parasite or virus in culture; type: cell-based; settings: Influenza A virus, A549, 20 h, A549 cells, influenza A/WSN/33 (H1N1), 20 hours incubation; read-out: A549_A(H1N1) EC50
in vitro = settings: human, CC50, uninfected A549 cells, CellTiter-Glo

In the case of `O=C1c2c(O)c(=O)ccn2N2CN1[C@@H](C(F)F)/C=C/COc1cccc3c1[C@@H]2c1ccccc1SC3` (single isomer, unassigned) [Compound 163BA, (9*R,17a*R,*E)-9-(difluoromethyl)-12-hydroxy-2,6,9,17a-tetrahydro-3,4-(epiprop[1]en[1]yl[3]ylidene)-10,17-methanobenzo[6,7]thiepino[4,5-c]pyrido[1,2-f][1]oxa[5,6,9]triazacyclotridecine-11,13-dione], the EC50 [1] is reported as over 50 nM and the CC50 (in vitro) is reported as over 100 nM.
`O=C1c2c(O)c(=O)ccn2N2CN1C/C=C\CCc1ncccc1[C@H]2c1ccccc1` (single isomer, unassigned) [Compound 24A, (18*R,*Z)-12-hydroxy-18-phenyl-5,6,9,18-tetrahydro-10,17-methanodipyrido[1,2-b:2′,3′-k][1,2,5]triazacyclotridecine-11,13-dione] showed an EC50 [1] of 39600 nM and a CC50 (in vitro) of over 10000 nM.
`O=C1c2c(O)c(=O)ccn2N2CN1CCCCCc1ncccc1[C@H]2c1ccccc1` (single isomer, unassigned) [Compound 23A, (18*R)-12-hydroxy-18-phenyl-5,6,7,8,9,18-hexahydro-10,17-methanodipyrido[1,2-b:2′,3′-k][1,2,5]triazacyclotridecine-11,13-dione] gave an EC50 [1] of 55000 nM and a CC50 (in vitro) of over 10000 nM.
Work on `CC(C)[C@@H]1/C=C/COc2c(ccc(F)c2F)[C@H](c2ccccc2)N2CN1C(=O)c1c(O)c(=O)ccn12` (single isomer, unassigned) [Compound 128BA, (9*R,18*S,*E)-3,4-difluoro-12-hydroxy-9-isopropyl-18-phenyl-6,9-dihydro-18H-10,17-methanobenzo[b]pyrido[1,2-f][1]oxa[5,6,9]triazacyclotridecine-11,13-dione] yielded an EC50 [1] of over 100 nM and a CC50 (in vitro) of over 200 nM.
With `C[C@@H]1C/C=C/COc2c(F)cccc2[C@@H](c2ccccc2)N2CN1C(=O)c1c(O)c(=O)ccn12` (single isomer, unassigned) [Compound 100AB, (2*R,9*R,*E)-33-fluoro-15-hydroxy-9-methyl-2-phenyl-12,13,14,16-tetrahydro-11H-4-oxa-1(1,3)-pyrido[2,1-f][1,2,4]triazina-3(1,2)-benzenacyclononaphan-6-ene-14,16-dione] the EC50 [1] was 2.1 nM and the CC50 (in vitro) was over 200 nM.
`O=C1c2c(O)c(=O)ccn2N2CN1CCCCCCc1ccccc1C2c1ccccn1` (stereo not shown) [Compound 11, 15-hydroxy-2-(pyridin-2-yl)-12,13,14,16-tetrahydro-11H-1(1,3)-pyrido[2,1-f][1,2,4]triazina-3(1,2)-benzenacyclononaphane-14,16-dione] gave an EC50 [1] of 363 nM and a CC50 (in vitro) of over 2000 nM.
In the case of `O=C1c2c(O)c(=O)ccn2N2CN1C/C=C\COc1c(OC(F)(F)F)cccc1[C@@H]2c1ccccc1` (single isomer, unassigned) [Compound 134B, (18*S,Z)-12-hydroxy-18-phenyl-4-(trifluoromethoxy)-6,9-dihydro-18H-10,17-methanobenzo[b]pyrido[1,2-f][1]oxa[5,6,9]triazacyclotridecine-11,13-dione], the EC50 [1] is reported as over 100 nM and the CC50 (in vitro) is reported as over 200 nM.
`O=C1c2c(O)c(=O)ccn2N2CN1CC[C@@H]1C[C@H]1COc1cccc3c1[C@H]2c1ccccc1SC3` (single isomer, unassigned) [Compound 131BA, (1*S,13*S,15*R)-7-hydroxy-17-oxa-24-thia-2,3,10-triazaheptacyclo[16.12.1.12,10.03,8.013,15.022,31.025,30]dotriaconta-4,18,20,22(31),25(30),26,28-heptaene-6,9-dione] showed an EC50 [1] of over 100 nM and a CC50 (in vitro) of over 200 nM.
Work on `O=C1c2c(O)c(=O)ccn2N2CN1C1(/C=C/COc3cccc4c3[C@@H]2c2ccccc2SC4)CC1` (single isomer, unassigned) [Compound 107A, (17a′*R,*E)-12′-hydroxy-2′,17a′-dihydro-6′H-spiro[cyclopropane-1,9′-[3,4](epiprop[1]en[1]yl[3]ylidene)[10,17]methanobenzo[6,7]thiepino[4,5-c]pyrido[1,2-f][1]oxa[5,6,9]triazacyclotridecine]-11′,13′-dione] yielded an EC50 [1] of over 100 nM and a CC50 (in vitro) of over 200 nM.
Work on `O=C1c2c(O)c(=O)ccn2N2CN1C[C@@H]1C[C@H]1COc1cccc3c1[C@H]2c1ccccc1SC3` [Compound 87BB, (1aR,11bS,20aR)-17-hydroxy-1a,2,6,11b,20,20a-hexahydro-1H-5,4-(epiprop[1]en[1]yl[3]ylidene)-12,19-methanobenzo[6,7]thiepino[4,5-c]cyclopropa[k]pyrido[1,2-f][1]oxa[5,6,9]triazacyclotridecine-16,18-dione] yielded an EC50 [1] of 4 nM and a CC50 (in vitro) of over 200 nM.
Compound `O=C1c2c(O)c(=O)ccn2N2CN1C/C=C/COc1cccc3c1[C@@H]2c1ccccc1SC3` [Compound 46C, (17R,E)-12-hydroxy-2,6,9,17a-tetrahydro-3,4-(epiprop[1]en[1]yl[3]ylidene)-10,17-methanobenzo[6,7]thiepino[4,5-c]pyrido[1,2-f][1]oxa[5,6,9]triazacyclotridecine-11,13-dione] has an EC50 [1] of 330 nM and a CC50 (in vitro) of over 2000 nM.
Compound `O=C1c2c(O)c(=O)ccn2N2CN1C/C=C\CCc1ccccc1[C@H]2c1ccccc1` (single isomer, unassigned) [Compound 21A, (17*R,*Z)-4-hydroxy-16-phenyl-7,10,11,16-tetrahydro-6,17-methanobenzo[k]pyrido[1,2-b][1,2,5]triazacyclotridecine-3,5-dione] has an EC50 [1] of 5 nM and a CC50 (in vitro) of over 1000 nM.
With `CN1Cc2ccccc2C(c2ccccc2)N2CN(CCC1=O)C(=O)c1c(O)c(=O)ccn12` (stereo not shown) [Compound 50, 12-hydroxy-6-methyl-18-phenyl-5,8,9,18-tetrahydro-10,17-methanobenzo[k]pyrido[1,2-b][1,2,5,9]tetraazacyclotridecine-7,11,13(6H)-trione] the EC50 [1] was over 1000 nM and the CC50 (in vitro) was over 2000 nM.
Compound `CC[C@H]1/C=C/COc2c(F)cccc2[C@H](c2ccccc2)N2CN1C(=O)c1c(O)c(=O)ccn12` (single isomer, unassigned) [Compound 85BA, (9*S,18*S,E)-9-ethyl-4-fluoro-12-hydroxy-18-phenyl-6,9-dihydro-18H-10,17-methanobenzo[b]pyrido[1,2-f][1]oxa[5,6,9]triazacyclotridecine-11,13-dione] has an EC50 [1] of over 500 nM and a CC50 (in vitro) of over 1000 nM.
Work on `C[C@@H]1/C=C\COc2cccc3c2[C@@H](c2ccccc2SC3)N2CN1C(=O)c1c(O)c(=O)ccn12` (single isomer, unassigned) [Compound 138AB, (13*R,21a*S,Z)-16-hydroxy-13-methyl-6,10,13,21a-tetrahydro-7,8-(epiprop[1]en[1]yl[3]ylidene)-14,21-methanobenzo[6,7]thiepino[4,5-c]pyrido[1,2-f][1]oxa[5,6,9]triazacyclotridecine-15,17-dione] yielded an EC50 [1] of 1.5 nM and a CC50 (in vitro) of over 50 nM.
`C[C@H]1C/C=C/COc2c(F)cccc2[C@@H](c2ccccc2)N2CN1C(=O)c1c(O)c(=O)ccn12` (single isomer, unassigned) [Compound 100AA, (2*R,9*S,*E)-33-fluoro-15-hydroxy-9-methyl-2-phenyl-12,13,14,16-tetrahydro-11H-4-oxa-1(1,3)-pyrido[2,1-f][1,2,4]triazina-3(1,2)-benzenacyclononaphan-6-ene-14,16-dione] showed an EC50 [1] of 1.7 nM and a CC50 (in vitro) of over 100 nM.
Compound `O=C1c2c(O)c(=O)ccn2N2CN1C/C=C\COc1ccccc1[C@H]2c1ccc(F)cc1` (single isomer, unassigned) [Compound 47A, (18*R,Z)-18-(4-fluorophenyl)-12-hydroxy-6,9-dihydro-18H-10,17-methanobenzo[b]pyrido[1,2-f][1]oxa[5,6,9]triazacyclotridecine-11,13-dione] has an EC50 [1] of over 1000 nM and a CC50 (in vitro) of over 2000 nM.
Compound `CC[C@@H]1/C=C/COc2c(F)cccc2[C@@H](c2ccccc2)N2CN1C(=O)c1c(O)c(=O)ccn12` (single isomer, unassigned) [Compound 85AB, (9*R,18*R,E)-9-ethyl-4-fluoro-12-hydroxy-18-phenyl-6,9-dihydro-18H-10,17-methanobenzo[b]pyrido[1,2-f][1]oxa[5,6,9]triazacyclotridecine-11,13-dione] has an EC50 [1] of 2 nM and a CC50 (in vitro) of over 200 nM.
With `C[C@@H]1/C=C/COc2cccc3c2[C@H](c2ccccc2SC3)N2CN1C(=O)c1c(O)c(=O)ccn12` (single isomer, unassigned) [Compound 138C, (9*R,17a*R,E)-12-hydroxy-9-methyl-2,6,9,17a-tetrahydro-3,4-(epiprop[1]en[1]yl[3]ylidene)-10,17-methanobenzo[6,7]thiepino[4,5-c]pyrido[1,2-f][1]oxa[5,6,9]triazacyclotridecine-11,13-dione] the EC50 [1] was over 100 nM and the CC50 (in vitro) was over 200 nM.
`O=C1c2c(O)c(=O)ccn2N2CN1C/C=C\COc1c(ccc(Cl)c1Cl)[C@@H]2c1ccccc1` (single isomer, unassigned) [Compound 103B, (18*S,Z)-3,4-dichloro-12-hydroxy-18-phenyl-6,9-dihydro-18H-10,17-methanobenzo[b]pyrido[1,2-f][1]oxa[5,6,9]triazacyclotridecine-11,13-dione] gave an EC50 [1] of 3.1 nM and a CC50 (in vitro) of over 200 nM.
With `Cc1c(F)ccc2c1OC/C=C\CN1CN([C@H]2c2ccccc2)n2ccc(=O)c(O)c2C1=O` (single isomer, unassigned) [Compound 133B, (18*S,Z)-3-fluoro-12-hydroxy-4-methyl-18-phenyl-6,9-dihydro-18H-10,17-methanobenzo[b]pyrido[1,2-f][1]oxa[5,6,9]triazacyclotridecine-11,13-dione] the EC50 [1] was over 100 nM and the CC50 (in vitro) was over 200 nM.
In the case of `O=C1c2c(O)c(=O)ccn2N2CN1CCCCCc1ccccc1C2c1ccccn1` (stereo not shown) [Compound 12, 4-hydroxy-16-(pyridin-2-yl)-7,8,9,10,11,16-hexahydro-6,17-methanobenzo[k]pyrido[1,2-b][1,2,5]triazacyclotridecine-3,5-dione], the EC50 [1] is reported as 86 nM and the CC50 (in vitro) is reported as over 2000 nM.
`O=C1c2c(O)c(=O)ccn2N2CN1CCOCCOc1ccccc1[C@@H]2c1ccccc1` (single isomer, unassigned) [Compound 99B, (2*S)-18-hydroxy-2-phenyl-9,12-dioxa-1,15,22-triazatetracyclo[13.7.1.03,8.017,22]tricosa-3,5,7,17,20-pentaene-16,19-dione] gave an EC50 [1] of 167 nM and a CC50 (in vitro) of over 1000 nM.
